Laboratory results reported in US20230355602A1, “TREATMENT AND/OR PREVENTION OF A VIRAL INFECTION” (priority 2020, published 2023).

Legend:
[1] = test system: CHIKV; test: Chikungunya virus assay in Huh7 cells (viral titer); format: cell-based
[2] = clinical; settings: human, in vivo
[3] = in vitro; format: cell-based; settings: African green monkey
Method: Vero E6 cells were treated with the above compounds ata range of concentrations (0.0001, 0.001, 0.01, 1,10, 30, 50, and 100 μM) and incubated for 4 days. After incubation, the media was removed from the plates and washed once with PBS before addition of alamarBlue Cell Viability Reagent (Thermo Fisher Scientific) diluted 1:10 in media with 2% FCS. Fluorescence was detected after 2.5 h incubation at an excitation wavelength of 570 nm and an emission wavelength of 600 nm on an Infinite 200 Pro multiplate reader (Tecan). Data obtained from compound-treated cells and vehicle-treated cells were normalised against those obtained from untreated cells.

[4] = test system: Dengue virus (serotypes 1, 2, 3 or 4); test: Dengue virus assay in Huh7 cells (viral titer); format: cell-based
[5] = test system: SARS-CoV-2 (hCoV-19/Singapore/10/2020); test: Dose-dependent inhibition assay with plaque assay titration in Vero E6 cells; format: cell-based
[6] = test system: A549 cells; test: in vitro; format: cell-based; settings: human, 48 h
Method: (§1) 12k cells (A549) per well in a 96-well plate. The compounds are added on the next day. 48 hrs treatment. 3-fold serial dilution for ASLAN 003 starting from 10 μM.

[7] = in vitro; format: cell-based; settings: human
Method: as §1

[8] = human, in vivo
[9] = test system: SARS-CoV-2-Nluc viruses; test: microbe, parasite or virus in culture; format: cell-based
[10] = test system: Zika virus; test: Zika virus assay in Huh7 cells (viral titer); format: cell-based
[11] = Severe acute respiratory syndrome coronavirus 2, Vero C1008, 96 h

COc1cccc(-c2cc(F)c(Nc3ncccc3C(=O)O)c(F)c2)c1 [ASLAN003, 2-(3,5-difluoro-3′-methoxybiphenyl-4-ylamino) nicotinic acid]
efficacy (potency) against Chikugunya [1]: sub-micromolar potency
half-life [2]: 18 h
CC50 at 4 days [3]: 87.2 µM
efficacy (potency) against Dengue [4]: sub-micromolar potency
EC50 [5, 11]: 0.00142 µM
EC90 [5, 11]: 0.00388 µM
inhibition of SARS-CoV-2 in Vero E6 cells (viral titre) ([5]; treated post virus infection, 0.0001 to 100 μM): Dosage dependent inhibition
IC50 [6]: > 10 µM
change in A549 cell viability [6]: no change in A549 cell viability
IC50 at 48 h [7]: > 10 µM
PK profiles in Asian and Caucasian patients [8]: equivalent
safety and tolerability, liver enzyme rises [8]: safe and well-tolerated with no evidence of significant liver enzyme rises
time until full exposure is achieved [8]: ≤ 24 h
efficacy (potency) against SARS-CoV-2 [9]: sub-micromolar potency
IC50 ([9]; Severe acute respiratory syndrome coronavirus 2, 48 h, read-out: SARS-COV-2 Reporter Assay (IC50, μM)): 0.812 µM
efficacy (potency) against Zika [10]: sub-micromolar potency
